Source: the supplement of paper PMC9663587

Assays:
YKL-5-124 = compound: C=CC(=O)Nc1ccc(C(=O)Nc2[nH]nc3c2CN(C(=O)N[C@H](CN(C)C)c2ccccc2)C3(C)C)cc1 [YKL-5-124]; assay: increase in dead-cell fraction, 72 h; higher = more death;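 note: breast cancer cell lines in 384-well plates, stained with Hoechst plus LIVE/DEAD far red dye and imaged, cells above an LDR intensity threshold counted dead, Hoechst-negative corpses included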
BSJ-03-123 = compound: CC(=O)c1c(C)c2cnc(Nc3ccc(N4CCN(CCOCCOCCOCCNC(=O)COc5cccc6c5C(=O)N(C5CCC(=O)NC5=O)C6=O)CC4)cn3)nc2n(C2CCCC2)c1=O [BSJ-03-123]; assay: as above
[1] = compound: CC(=O)c1c(C)c2cnc(Nc3ccc(N4CCNCC4)cn3)nc2n(C2CCCC2)c1=O; assay: as above
[2] = compound: CCN1CCN(Cc2ccc(Nc3ncc(F)c(-c4cc(F)c5nc(C)n(C(C)C)c5c4)n3)nc2)CC1; assay: as above
Neratinib/HKI272 [3] = compound: T1, CCOc1cc2ncc(C#N)c(Nc3ccc(OCc4ccccn4)c(Cl)c3)c2cc1NC(=O)/C=C/CN(C)C [Neratinib/HKI272]; assay: as above
[4] = compound: CCc1cnn2c(NCc3ccc[n+]([O-])c3)cc(N3CCCC[C@H]3CCO)nc12; assay: as above
LEE011/Ribociclib = compound: CN(C)C(=O)c1cc2cnc(Nc3ccc(N4CCNCC4)cn3)nc2n1C1CCCC1 [LEE011/Ribociclib]; assay: as above
THZ531 = compound: CN(C)C/C=C/C(=O)Nc1ccc(C(=O)N2CCC[C@@H](Nc3ncc(Cl)c(-c4c[nH]c5ccccc45)n3)C2)cc1 [THZ531]; assay: as above
THZ1 = compound: CN(C)C/C=C/C(=O)Nc1ccc(C(=O)Nc2cccc(Nc3ncc(Cl)c(-c4c[nH]c5ccccc45)n3)c2)cc1 [THZ1]; assay: as above
Flavopiridol [5] = compound: T2, CN1CC[C@H](c2c(O)cc(O)c3c(=O)cc(-c4ccccc4Cl)oc23)[C@H](O)C1 [Flavopiridol]; assay: as above
Neratinib/HKI272 [6] = compound: T1, Neratinib/HKI272; assay: GR value, 72 h; higher = faster growth (1 = untreated, <0 = killing);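 note: breast cancer and non-malignant breast epithelial lines, nine half-log doses, viable cells counted by Hoechst and LIVE/DEAD dye imaging versus time-zero plates and DMSO controls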
Flavopiridol [7] = compound: T2, Flavopiridol; assay: as above

HCC1937
increase in dead-cell fraction (YKL-5-124; 0.001 µM): 0.004 | increase in dead-cell fraction (YKL-5-124; 0.003162 µM): 0.0243 | increase in dead-cell fraction (YKL-5-124; 0.01 µM): 0.0426 | increase in dead-cell fraction (YKL-5-124; 0.03162 µM): 0.0331 | increase in dead-cell fraction (YKL-5-124; 0.1 µM): 0.0403 | increase in dead-cell fraction (YKL-5-124; 0.3162 µM): 0.0391 | increase in dead-cell fraction (YKL-5-124; 1 µM): 0.0843 | increase in dead-cell fraction (YKL-5-124; 3.162 µM): 0.0582 | increase in dead-cell fraction (YKL-5-124; 10 µM): 0.0895 | increase in dead-cell fraction (BSJ-03-123; 0.001 µM): 0.001 | increase in dead-cell fraction (BSJ-03-123; 0.003162 µM): -0.0071 | increase in dead-cell fraction (BSJ-03-123; 0.01 µM): 0.0079 | increase in dead-cell fraction (BSJ-03-123; 0.03162 µM): 0 | increase in dead-cell fraction (BSJ-03-123; 0.1 µM): 0.0032 | increase in dead-cell fraction (BSJ-03-123; 0.3162 µM): -0.0022 | increase in dead-cell fraction (BSJ-03-123; 1 µM): -0.0018 | increase in dead-cell fraction (BSJ-03-123; 3.162 µM): -0.0018 | increase in dead-cell fraction (BSJ-03-123; 10 µM): 0.0245 | increase in dead-cell fraction ([1]; 0.0003162 µM): -0.0018 | increase in dead-cell fraction ([1]; 0.001 µM): -0.0051 | increase in dead-cell fraction ([1]; 0.003162 µM): 0.0021 | increase in dead-cell fraction ([1]; 0.01 µM): 0.0002 | increase in dead-cell fraction ([1]; 0.03162 µM): -0.0009 | increase in dead-cell fraction ([1]; 0.1 µM): -0.0009 | increase in dead-cell fraction ([1]; 0.3162 µM): -0.0038 | increase in dead-cell fraction ([1]; 1 µM): -0.0027 | increase in dead-cell fraction ([1]; 3.162 µM): -0.0018 | increase in dead-cell fraction ([2]; 0.001 µM): -0.0017 | increase in dead-cell fraction ([2]; 0.003162 µM): -0.0029 | increase in dead-cell fraction ([2]; 0.01 µM): -0.0019 | increase in dead-cell fraction ([2]; 0.03162 µM): -0.0004 | increase in dead-cell fraction ([2]; 0.1 µM): -0.0064 | increase in dead-cell fraction ([2]; 0.3162 µM): -0.0073 | increase in dead-cell fraction ([2]; 1 µM): -0.0012 | increase in dead-cell fraction ([2]; 3.162 µM): 0.0025 | increase in dead-cell fraction ([2]; 10 µM): 0.0559 | increase in dead-cell fraction (Neratinib/HKI272 [3]; 0.0003162 µM): 0.0017 | increase in dead-cell fraction (Neratinib/HKI272 [3]; 0.001 µM): 0.0031 | increase in dead-cell fraction (Neratinib/HKI272 [3]; 0.003162 µM): 0.0127 | increase in dead-cell fraction (Neratinib/HKI272 [3]; 0.01 µM): 0.0186 | increase in dead-cell fraction (Neratinib/HKI272 [3]; 0.03162 µM): 0.0314 | increase in dead-cell fraction (Neratinib/HKI272 [3]; 0.1 µM): 0.0326 | increase in dead-cell fraction (Neratinib/HKI272 [3]; 0.3162 µM): 0.0327 | increase in dead-cell fraction (Neratinib/HKI272 [3]; 1 µM): 0.0368 | increase in dead-cell fraction (Neratinib/HKI272 [3]; 3.162 µM): 0.0974 | increase in dead-cell fraction ([4]; 0.0001 µM): 0.0021 | increase in dead-cell fraction ([4]; 0.0003162 µM): -0.0036 | increase in dead-cell fraction ([4]; 0.001 µM): 0.0015 | increase in dead-cell fraction ([4]; 0.003162 µM): -0.0021 | increase in dead-cell fraction ([4]; 0.01 µM): 0.0113 | increase in dead-cell fraction ([4]; 0.03162 µM): 0.156 | increase in dead-cell fraction ([4]; 0.1 µM): 0.192 | increase in dead-cell fraction ([4]; 0.3162 µM): 0.181 | increase in dead-cell fraction ([4]; 1 µM): 0.19 | increase in dead-cell fraction (LEE011/Ribociclib; 0.001 µM): -0.0088 | increase in dead-cell fraction (LEE011/Ribociclib; 0.003162 µM): -0.0054 | increase in dead-cell fraction (LEE011/Ribociclib; 0.01 µM): -0.0115 | increase in dead-cell fraction (LEE011/Ribociclib; 0.03162 µM): -0.0122 | increase in dead-cell fraction (LEE011/Ribociclib; 0.1 µM): -0.0012 | increase in dead-cell fraction (LEE011/Ribociclib; 0.3162 µM): -0.0035 | increase in dead-cell fraction (LEE011/Ribociclib; 1 µM): -0.0021 | increase in dead-cell fraction (LEE011/Ribociclib; 3.162 µM): -0.0077 | increase in dead-cell fraction (LEE011/Ribociclib; 10 µM): 0.0003 | increase in dead-cell fraction (THZ531; 0.0001 µM): 0.0017 | increase in dead-cell fraction (THZ531; 0.0003162 µM): 0.0017 | increase in dead-cell fraction (THZ531; 0.001 µM): 0.0043 | increase in dead-cell fraction (THZ531; 0.003162 µM): -0.0008 | increase in dead-cell fraction (THZ531; 0.01 µM): -0.0084 | increase in dead-cell fraction (THZ531; 0.03162 µM): -0.0082 | increase in dead-cell fraction (THZ531; 0.1 µM): 0.0051 | increase in dead-cell fraction (THZ531; 0.3162 µM): 0.0511 | increase in dead-cell fraction (THZ531; 1 µM): 0.0969 | increase in dead-cell fraction (THZ1; 0.0001 µM): -0.0003 | increase in dead-cell fraction (THZ1; 0.0003162 µM): -0.0027 | increase in dead-cell fraction (THZ1; 0.001 µM): -0.0105 | increase in dead-cell fraction (THZ1; 0.003162 µM): -0.0045 | increase in dead-cell fraction (THZ1; 0.01 µM): -0.0053 | increase in dead-cell fraction (THZ1; 0.03162 µM): -0.0002 | increase in dead-cell fraction (THZ1; 0.1 µM): 0.06 | increase in dead-cell fraction (THZ1; 0.3162 µM): 0.0438 | increase in dead-cell fraction (THZ1; 1 µM): 0.104 | increase in dead-cell fraction (Flavopiridol [5]; 0.0001 µM): -0.0009 | increase in dead-cell fraction (Flavopiridol [5]; 0.0003162 µM): -0.0013 | increase in dead-cell fraction (Flavopiridol [5]; 0.001 µM): -0.0022 | increase in dead-cell fraction (Flavopiridol [5]; 0.003162 µM): -0.0083 | increase in dead-cell fraction (Flavopiridol [5]; 0.01 µM): 0.0073 | increase in dead-cell fraction (Flavopiridol [5]; 0.03162 µM): 0 | increase in dead-cell fraction (Flavopiridol [5]; 0.1 µM): 0.0006 | increase in dead-cell fraction (Flavopiridol [5]; 0.3162 µM): 0.0316 | increase in dead-cell fraction (Flavopiridol [5]; 1 µM): 0.0846 | GR value (Neratinib/HKI272 [6]; 0.0003162 µM): 0.987 GR | GR value (Neratinib/HKI272 [6]; 0.001 µM): 1.03 GR | GR value (Neratinib/HKI272 [6]; 0.003162 µM): 0.951 GR | GR value (Neratinib/HKI272 [6]; 0.01 µM): 0.945 GR | GR value (Neratinib/HKI272 [6]; 0.03162 µM): 0.897 GR | GR value (Neratinib/HKI272 [6]; 0.1 µM): 0.824 GR | GR value (Neratinib/HKI272 [6]; 0.3162 µM): 0.735 GR | GR value (Neratinib/HKI272 [6]; 1 µM): 0.633 GR | GR value (Neratinib/HKI272 [6]; 3.162 µM): 0.295 GR | GR value (Flavopiridol [7]; 0.0001 µM): 1.08 GR | GR value (Flavopiridol [7]; 0.0003162 µM): 1.02 GR | GR value (Flavopiridol [7]; 0.001 µM): 0.946 GR | GR value (Flavopiridol [7]; 0.003162 µM): 1.01 GR | GR value (Flavopiridol [7]; 0.01 µM): 0.918 GR | GR value (Flavopiridol [7]; 0.03162 µM): 1.01 GR | GR value (Flavopiridol [7]; 0.1 µM): 0.691 GR | GR value (Flavopiridol [7]; 0.3162 µM): 0.19 GR | GR value (Flavopiridol [7]; 1 µM): -0.211 GR
